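Exposure lasted 48 hours, with cells grown in 96-well plates and compounds tested at five concentrations. At the GI50, growth is halved.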 Calls of active or inactive are those of the source. Cut-off read from the data, not from the text of the source: active = GI50 up to about 1.1 µM and inactive = higher.
Assays:
Test in all cases: DTP human tumour cell line panel, 48 h
EKVX = tested on: EKVX
OVCAR-5 = tested on: OVCAR-5
A549 = tested on: A549
DMS-273 = tested on: DMS-273
RXF 393 = tested on: RXF 393
XF498 = tested on: XF498
SF-295 = tested on: SF-295
A498 = tested on: A498
SK-MEL-28 = tested on: SK-MEL-28
K562 = tested on: K562
OVCAR-8 = tested on: OVCAR-8
DMS-114 = tested on: DMS-114
HOP-18 = tested on: HOP-18
Malme-3M = tested on: Malme-3M
TK-10 = tested on: TK-10
DU-145 = tested on: DU-145
MDA-MB-435 = tested on: MDA-MB-435
MDA-MB-231 = tested on: MDA-MB-231
MDA-N = tested on: MDA-N

CCCNC(=O)C(C)C1CCC2(C)C=CC(=O)C(C)=C2C1O (stereo unspecified)
GI50 (EKVX): > 100 µM (inactive) | GI50 (OVCAR-5): > 100 µM (inactive) | GI50 (A549): > 100 µM (inactive) | GI50 (DMS-273): > 100 µM (inactive) | GI50 (RXF 393): > 100 µM (inactive) | GI50 (XF498): > 100 µM (inactive) | GI50 (SF-295): > 100 µM (inactive) | GI50 (A498): > 100 µM (inactive) | GI50 (SK-MEL-28): > 100 µM (inactive) | GI50 (K562): > 100 µM (inactive) | GI50 (OVCAR-8): > 100 µM (inactive) | GI50 (DMS-114): > 100 µM (inactive) | GI50 (HOP-18): > 100 µM (inactive)

NC(Cc1cc(I)c(O)c(I)c1)C(=O)O (stereo unspecified)
GI50 (EKVX): > 316 µM (inactive) | GI50 (OVCAR-5): > 427 µM (inactive) | GI50 (A549): > 500 µM (inactive) | GI50 (DMS-273): > 206 µM (inactive) | GI50 (RXF 393): 252 µM (inactive) | GI50 (XF498): > 348 µM (inactive) | GI50 (SF-295): > 500 µM (inactive) | GI50 (Malme-3M): > 500 µM (inactive) | GI50 (A498): > 500 µM (inactive) | GI50 (SK-MEL-28): > 500 µM (inactive) | GI50 (K562): > 500 µM (inactive) | GI50 (OVCAR-8): > 500 µM (inactive) | GI50 (DMS-114): 185 µM (inactive) | GI50 (HOP-18): 466 µM (inactive)

COc1cc(/C=C\c2cccnc2)cc(OC)c1OC
GI50 (EKVX): 38.1 µM (inactive) | GI50 (OVCAR-5): > 100 µM (inactive) | GI50 (A549): 42.1 µM (inactive) | GI50 (DMS-273): 33.1 µM (inactive) | GI50 (RXF 393): 22.6 µM (inactive) | GI50 (XF498): 48.9 µM (inactive) | GI50 (SF-295): 36.6 µM (inactive) | GI50 (Malme-3M): 64.9 µM (inactive) | GI50 (TK-10): > 100 µM (inactive) | GI50 (SK-MEL-28): 69.3 µM (inactive) | GI50 (K562): 24.5 µM (inactive) | GI50 (OVCAR-8): 63.2 µM (inactive) | GI50 (DMS-114): 46.8 µM (inactive) | GI50 (HOP-18): > 100 µM (inactive)

CC(=O)C1CC(C)=CCC12C(=O)Nc1ccccc12 (stereo unspecified)
GI50 (EKVX): > 100 µM (inactive) | GI50 (OVCAR-5): > 100 µM (inactive) | GI50 (A549): > 100 µM (inactive) | GI50 (DMS-273): > 100 µM (inactive) | GI50 (RXF 393): 13.9 µM (inactive) | GI50 (XF498): > 100 µM (inactive) | GI50 (SF-295): > 100 µM (inactive) | GI50 (Malme-3M): > 100 µM (inactive) | GI50 (A498): > 100 µM (inactive) | GI50 (TK-10): > 100 µM (inactive) | GI50 (SK-MEL-28): > 100 µM (inactive) | GI50 (K562): > 100 µM (inactive) | GI50 (OVCAR-8): > 100 µM (inactive) | GI50 (DMS-114): > 100 µM (inactive) | GI50 (HOP-18): > 100 µM (inactive)

C/C(=N\N=C(/S)N1CCCCCC1)c1cccc[n+]1[O-]
GI50 (EKVX): 7.23 µM (inactive) | GI50 (OVCAR-5): 21.4 µM (inactive) | GI50 (DU-145): 31.5 µM (inactive) | GI50 (A549): 4.36 µM (inactive) | GI50 (DMS-273): 1.87 µM (inactive) | GI50 (RXF 393): 18.4 µM (inactive) | GI50 (XF498): 5.27 µM (inactive) | GI50 (SF-295): 5.3 µM (inactive) | GI50 (MDA-MB-435): 9.57 µM (inactive) | GI50 (Malme-3M): 1.6 µM (inactive) | GI50 (A498): 21.6 µM (inactive) | GI50 (TK-10): 21.5 µM (inactive) | GI50 (SK-MEL-28): 6.58 µM (inactive) | GI50 (MDA-MB-231): 7.59 µM (inactive) | GI50 (K562): 0.0883 µM (active) | GI50 (OVCAR-8): 3.12 µM (inactive) | GI50 (DMS-114): 0.0198 µM (active) | GI50 (HOP-18): 18.2 µM (inactive) | GI50 (MDA-N): 6.47 µM (inactive)

CC(=O)Nc1cccc2[nH]c3ccccc3c(=O)c12
GI50 (EKVX): 25.1 µM (inactive) | GI50 (OVCAR-5): 20.6 µM (inactive) | GI50 (A549): 21.6 µM (inactive) | GI50 (DMS-273): 32.2 µM (inactive) | GI50 (XF498): 23.1 µM (inactive) | GI50 (SF-295): 19.5 µM (inactive) | GI50 (Malme-3M): 22.3 µM (inactive) | GI50 (A498): 14.9 µM (inactive) | GI50 (TK-10): 20.4 µM (inactive) | GI50 (SK-MEL-28): 31.5 µM (inactive) | GI50 (K562): 21.8 µM (inactive) | GI50 (OVCAR-8): 16.4 µM (inactive) | GI50 (DMS-114): 25.6 µM (inactive) | GI50 (HOP-18): 6.82 µM (inactive)

C#C[C@H](CCCC)OC(=O)N[C@H](C)c1ccccc1
GI50 (EKVX): 50.6 µM (inactive) | GI50 (OVCAR-5): 48 µM (inactive) | GI50 (A549): 36.1 µM (inactive) | GI50 (DMS-273): 38.8 µM (inactive) | GI50 (RXF 393): 30.9 µM (inactive) | GI50 (XF498): 84.1 µM (inactive) | GI50 (SF-295): 75 µM (inactive) | GI50 (TK-10): 37.8 µM (inactive) | GI50 (SK-MEL-28): 54.5 µM (inactive) | GI50 (K562): 34.6 µM (inactive) | GI50 (OVCAR-8): 49.3 µM (inactive) | GI50 (DMS-114): 28.2 µM (inactive) | GI50 (HOP-18): > 100 µM (inactive)

CC1=N/C(=C/c2ccc3c(c2)OCO3)C(=O)O1
GI50 (EKVX): > 100 µM (inactive) | GI50 (OVCAR-5): > 100 µM (inactive) | GI50 (A549): > 100 µM (inactive) | GI50 (DMS-273): > 100 µM (inactive) | GI50 (RXF 393): > 100 µM (inactive) | GI50 (XF498): > 100 µM (inactive) | GI50 (Malme-3M): > 100 µM (inactive) | GI50 (A498): > 100 µM (inactive) | GI50 (TK-10): > 100 µM (inactive) | GI50 (SK-MEL-28): > 100 µM (inactive) | GI50 (K562): > 100 µM (inactive) | GI50 (OVCAR-8): > 100 µM (inactive) | GI50 (DMS-114): > 100 µM (inactive) | GI50 (HOP-18): > 100 µM (inactive)
